Consider 1 compound from article PMC10800100, “DoAP2/ERF89 activated the terpene synthase gene DoPAES in Dendrobium officinale and participated in the synthesis of β-patchoulene” (PeerJ, 2024).

This experiment has as its target T1, DoPAES (Dendrobium catenatum, UniProt A0A975TQG2).
T1 sequence (A0A975TQG2 1-550): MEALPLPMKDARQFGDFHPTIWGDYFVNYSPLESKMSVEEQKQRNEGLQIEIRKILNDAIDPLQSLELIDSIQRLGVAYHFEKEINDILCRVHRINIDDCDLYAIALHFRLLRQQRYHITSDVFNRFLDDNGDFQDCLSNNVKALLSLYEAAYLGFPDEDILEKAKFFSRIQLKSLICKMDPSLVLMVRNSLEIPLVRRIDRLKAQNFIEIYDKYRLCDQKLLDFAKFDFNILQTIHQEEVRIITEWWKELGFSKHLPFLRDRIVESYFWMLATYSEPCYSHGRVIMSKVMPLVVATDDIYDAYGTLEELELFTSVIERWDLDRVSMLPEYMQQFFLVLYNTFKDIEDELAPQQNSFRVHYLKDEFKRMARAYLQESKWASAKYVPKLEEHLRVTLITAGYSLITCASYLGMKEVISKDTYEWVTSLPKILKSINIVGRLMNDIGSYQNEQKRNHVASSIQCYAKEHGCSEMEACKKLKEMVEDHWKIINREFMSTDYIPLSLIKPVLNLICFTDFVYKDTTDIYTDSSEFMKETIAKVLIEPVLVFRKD
The experiment can be described thus: HS-SPME-GC-MS of products formed by crude recombinant protein. In kind it is biochemical. The following applies: 50 mmol/L Tris pH 7.5, 10 mmol/L MgCl2, 10 μmol/L MnCl2, 30 °C, 30 min.

Regarding `CC(C)=CCC/C(C)=C/CC/C(C)=C/COP(=O)(O)OP(=O)(O)O` [FPP], the “HS-SPME-GC-MS of products formed by crude recombinant protein” value is recorded as “The products were then detected by GC-MS after adding substrate FPP”.
